Data: patent US8309718B2, “4-pyrazolyl-N-arylpyrimidin-2-amines and 4-pyrazolyl-N-heteroarylpyrimidin-2-amines as janus kinase inhibitors” (Incyte Corporation, priority 2007, dated 2012)

These compounds were tested against T1, human JAK2 (Homo sapiens, UniProt O60674) (assay: In vitro JAK kinase assay (HTRF, phosphorylation of biotinylated peptide)). Details: catalytic domain a.a. 828-1132, 30 μM ATP, 500 nM peptide, room temperature 1 hr; read-out: JAK-2 IC50.
T1 construct: JAK2 (a.a. 828-1132); His tag (N); made in house; host or cells: insect cells (baculovirus)
Format: biochemical
In short: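 His-tagged human JAK2 catalytic domain (a.a. 828-1132), baculovirus/insect-cell expressed; phosphorylation of 500 nM biotinylated peptide at 30 μM ATP in 50 mM Tris pH 7.8, 100 mM NaCl, 5 mM DTT, 0.01% BSA. 1 h at room temperature, EDTA stop, HTRF read (Eu-Py20/SA-APC); IC50.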

T1 sequence (O60674 828-1132): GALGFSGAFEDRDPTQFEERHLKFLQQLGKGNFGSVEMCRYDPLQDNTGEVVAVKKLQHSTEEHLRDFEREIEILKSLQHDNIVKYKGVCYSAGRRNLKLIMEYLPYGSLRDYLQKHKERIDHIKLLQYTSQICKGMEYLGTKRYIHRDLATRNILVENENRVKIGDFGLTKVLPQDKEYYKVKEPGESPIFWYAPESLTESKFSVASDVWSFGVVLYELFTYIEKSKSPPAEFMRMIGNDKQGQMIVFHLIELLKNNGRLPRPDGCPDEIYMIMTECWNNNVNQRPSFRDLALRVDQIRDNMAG

IC50, < 0.1 µM:
Cc1noc(C)c1C(=O)Nc1ccc(Nc2nccc(-c3cnn(C(CC#N)C4CCCC4)c3)n2)cc1 (racemic) [Example 189, N-(4-(4-(1-(2-cyano-1-cyclopentylethyl)-1H-pyrazol-4-yl)pyrimidin-2-ylamino)phenyl)-3,5-dimethylisoxazole-4-carboxamide]
Cn1ccc(S(=O)(=O)Nc2ccc(Nc3nccc(-c4cnn(C(CC#N)C5CCCC5)c4)n3)cc2)n1 (racemic) [Example 190, N-(4-(4-(1-(2-cyano-1-cyclopentylethyl)-1H-pyrazol-4-yl)pyrimidin-2-ylamino)phenyl)-1-methyl-1H-pyrazole-3-sulfonamide]
N#CCC(C1CCCC1)n1cc(-c2ccnc(Nc3ccc(N4CCCS4(=O)=O)cc3)n2)cn1 (racemic) [Example 192, 3-cyclopentyl-3-(4-(2-(4-(1,1-dioxidoisothiazolidin-2-yl)phenyl)aminopyrimidin-4-yl)-1H-pyrazol-1-yl)propanenitrile]
Cc1nc(-c2ccc(S(=O)(=O)Nc3ccc(Nc4nccc(-c5cnn(C(CC#N)C6CCCC6)c5)n4)cc3)s2)cs1 (racemic) [Example 193, N-(4-(4-(1-(2-cyano-1-cyclopentylethyl)-1H-pyrazol-4-yl)pyrimidin-2-ylamino)phenyl)-5-(2-methylthiazol-4-yl)thiophene-2-sulfonamide]
Cc1cccc(S(=O)(=O)Nc2ccc(Nc3nccc(-c4cnn(C(CC#N)C5CCCC5)c4)n3)cc2)n1 (racemic) [Example 194, N-(4-(4-(1-(2-cyano-1-cyclopentylethyl)-1H-pyrazol-4-yl)pyrimidin-2-ylamino)phenyl)-6-methylpyridine-2-sulfonamide]
N#CCC(C1CCCC1)n1cc(-c2ccnc(Nc3ccc(NS(=O)(=O)c4ccc(-c5ccccn5)s4)cc3)n2)cn1 (racemic) [Example 195, N-(4-(4-(1-(2-cyano-1-cyclopentylethyl)-1H-pyrazol-4-yl)pyrimidin-2-ylamino)phenyl)-5-(pyridin-2-yl)thiophene-2-sulfonamide]
N#CCC(C1CCCC1)n1cc(-c2ccnc(Nc3ccc(NS(=O)(=O)c4ccc(Cl)s4)cc3)n2)cn1 (racemic) [Example 196, 5-chloro-N-(4-(4-(1-(2-cyano-1-cyclopentylethyl)-1H-pyrazol-4-yl)pyrimidin-2-ylamino)phenyl)thiophene-2-sulfonamide]
N#CCC(C1CCCC1)n1cc(-c2ccnc(Nc3ccc(NS(=O)(=O)c4ccc(N5CCOCC5)nc4)cc3)n2)cn1 (racemic) [Example 197, N-(4-(4-(1-(2-cyano-1-cyclopentylethyl)-1H-pyrazol-4-yl)pyrimidin-2-ylamino)phenyl)-6-morpholinopyridine-3-sulfonamide]
N#CCC(C1CCCC1)n1cc(-c2ccnc(Nc3ccc(NC(=O)O[C@@H]4CCOC4)cc3)n2)cn1 (mixture of isomers) [Example 199, (R)-tetrahydrofuran-3-yl 4-(4-(1-(2-cyano-1-cyclopentylethyl)-1H-pyrazol-4-yl)pyrimidin-2-ylamino)phenylcarbamate]
Cn1ccc(S(=O)(=O)Nc2cccc(Nc3nccc(-c4cnn(C(CC#N)C5CCCC5)c4)n3)c2)n1 (racemic) [Example 201, N-(3-(4-(1-(2-cyano-1-cyclopentylethyl)-1H-pyrazol-4-yl)pyrimidin-2-ylamino)phenyl)-1-methyl-1H-pyrazole-3-sulfonamide]
CN(C)S(=O)(=O)Nc1cccc(Nc2nccc(-c3cnn(C(CC#N)C4CCCC4)c3)n2)c1 (racemic) [Example 202, NA-(3-(4-(1-(2-cyano-1-cyclopentylethyl)-1H-pyrazol-4-yl)pyrimidin-2-ylamino)phenyl)-N,N-dimethylsulfamide]
N#CCC(C1CCCC1)n1cc(-c2ccnc(Nc3ccc(NC(=O)CN4CCCC4)cc3)n2)cn1 (racemic) [Example 203, N-(4-(4-(1-(2-cyano-1-cyclopentylethyl)-1H-pyrazol-4-yl)pyrimidin-2-ylamino)phenyl)-2-(pyrrolidin-1-yl)acetamide]
N#CCC(C1CCCC1)n1cc(-c2ccnc(Nc3ccc(NC(=O)CN4CCC(O)CC4)cc3)n2)cn1 (racemic) [Example 205, N-(4-(4-(1-(2-cyano-1-cyclopentylethyl)-1H-pyrazol-4-yl)pyrimidin-2-ylamino)phenyl)-2-(4-hydroxypiperidin-1-yl)acetamide]
N#CCC(C1CCCC1)n1cc(-c2ccnc(Nc3ccc(NC(=O)CN4CCNC(=O)C4)cc3)n2)cn1 (racemic) [Example 206, N-(4-(4-(1-(2-cyano-1-cyclopentylethyl)-1H-pyrazol-4-yl)pyrimidin-2-ylamino)phenyl)-2-(3-oxopiperazin-1-yl)acetamide]
N#CCC(C1CCCC1)n1cc(-c2ccnc(Nc3ccc(NC(=O)CN4CCOCC4)cc3)n2)cn1 (racemic) [Example 207, N-(4-(4-(1-(2-cyano-1-cyclopentylethyl)-1H-pyrazol-4-yl)pyrimidin-2-ylamino)phenyl)-2-morpholinoacetamide]
N#CCC(C1CCCC1)n1cc(-c2ccnc(Nc3ccc(NC(=O)CNCC4CCOCC4)cc3)n2)cn1 (racemic) [Example 208, N-(4-(4-(1-(2-cyano-1-cyclopentylethyl)-1H-pyrazol-4-yl)pyrimidin-2-ylamino)phenyl)-2-((tetrahydro-2H-pyran-4-yl)methylamino)acetamide]
N#CCC(C1CCCC1)n1cc(-c2ccnc(Nc3ccc(NC(=O)CNCC4CC4)cc3)n2)cn1 (racemic) [Example 210, N-(4-(4-(1-(2-cyano-1-cyclopentylethyl)-1H-pyrazol-4-yl)pyrimidin-2-ylamino)phenyl)-2-(cyclopropylmethylamino)acetamide]
N#CCC(C1CCCC1)n1cc(-c2ccnc(Nc3ccc(C(=O)N4CCOCC4)cc3)n2)cn1 (racemic) [Example 213, 3-cyclopentyl-3-(4-(2-(4-(morpholine-4-carbonyl)phenylamino)pyrimidin-4-yl)-1H-pyrazol-1-yl)propanenitrile]
N#CCC(C1CCCC1)n1cc(-c2ccnc(Nc3ccc(C(=O)NCC4CCOCC4)cc3)n2)cn1 (racemic) [Example 214, 4-(4-(1-(2-cyano-1-cyclopentylethyl)-1H-pyrazol-4-yl)pyrimidin-2-ylamino)-N-((tetrahydro-2H-pyran-4-yl)methyl)benzamide]
N#CCC(C1CCCC1)n1cc(-c2ccnc(Nc3ccc(C(=O)N4[C@@H]5CC[C@H]4C[C@@H](O)C5)cc3)n2)cn1 (mixture of isomers) [Example 215, 3-cyclopentyl-3-(4-(2-(4-((3-endo)-3-hydroxy-8-azabicyclo[3.2.1]octane-8-carbonyl)phenylamino)pyrimidin-4-yl)-1H-pyrazol-1-yl)propanenitrile]
N#CCC(C1CCCC1)n1cc(-c2ccnc(Nc3ccc(C(=O)N4C5CC6CC4CC(C5)O6)cc3)n2)cn1 (racemic) [Example 216, 3-cyclopentyl-3-(4-(2-(4-(2-oxa-6-azatricyclo[3.3.1.1(3,7)]dec-6-ylcarbonyl)phenyl)aminopyrimidin-4-yl)-1H-pyrazol-1-yl)propanenitrile]
